Assay results taken from patent US5843916A, “Cyclic amp analogues, individually and in pairs, to inhibit neoplastic cell growth” (priority 1994, dated 1998).
Where two headings read alike, the source gives them in different places.

Assays:
[1] = tested on: LoVo colon tumors; assay: Subcutaneous infusion in tumor-bearing mice; type: in vivo, human xenograft in athymic NCR-NU mice; settings: sc infusion approximately 42 mg/kg/day (1 mg/mouse), seven days
[2] = tested on: L1210 leukemia; assay: Life span of L1210-inoculated BDF1 mice (Table 7)
[3] = tested on: LOVO Colon carcinoma; assay: Growth of human colon tumor xenograft, ip infusion (Table 9); type: in vivo, human xenograft in athymic CD-1 mice; settings: 7 days
Protocol: (§1) Based on the findings with the […] leukemia model, the efficacy of the 8-Cl-cAMP-Na+infusions were evaluated in advanced-stage human tumor xenograft models. Tumor fragments of approximately 14 mg were implanted subcutaneously in athymic CD-1 female mice and seven day intraperitoneal infusions of the cyclic nucleotide were initiated three weeks later when mean tumor weights had reached 300-400 mg. Tumor measurements were recorded on the initial day of treatment (staging day) and one day after treatment was completed (staging day +7), and were used to calculate changes in tumor weights.
(§2) *Mean tumor weight per group on staging day.
(§3) $Mean tumor weight per group on staging day +7.
(§4) **Change in test tumor wt (finalinitial)/initial test tumor treatment.
(§5) Denoted by negative value.
(§6) $$Change in test tumor wt/change in control tumor wt. Used where test
(§7) tumor size increased during treatment. Denoted by positive value.

[4] = tested on: BDF1 mice; assay: Toxicity in non-tumor BDF1 mice (Table 6); type: in vivo, mouse; settings: for Toxic deaths, No. killed/No. treated: qd, day 1
Protocol: (§8) Influence of 8-Cl-cAMP-Na^+ on the life span of
(§9) non-tumor BDF1 mice when delivered i.p. by bolus injection
(§10) When delivered qd, day 1 to nontumor BDF1 mice, the 480 and 288 mg/k

[5] = Toxicity in non-tumor BDF1 mice (Table 6); type: in vivo, mouse; settings: mouse, in vivo; for mortality: qd, day 1, read-out: Toxic deaths, No. killed/No. treated
Protocol: as §8, §9, §10

[6] = tested on: LX-1-Lung carcinoma; assay: Growth of human lung tumor xenograft, ip infusion (Table 9); type: in vivo, human xenograft in athymic CD-1 mice; settings: 7 days
Protocol: as §1, §2, §3, §4, §5, §6, §7

[7] = tested on: MX-1 mammary carcinoma; assay: Growth of human mammary tumor xenograft, ip infusion (Table 8); type: in vivo, human xenograft in athymic CD-1 mice; settings: 7 days; for % Δ T/T or % Δ T/ΔC: negative = ΔT/T
Protocol: as §1, §2, §3, §4, §5, §6, §7

[8] = tested on: MDA-MB-231 mammary carcinoma; assay: as above; type: in vivo, human xenograft in athymic CD-1 mice; settings: 7 days; for % Δ T/T or % Δ T/ΔC: positive = ΔT/ΔC
Protocol: as §1, §2, §3, §4, §5, §6, §7

[9] = tested on: two mammary, one lung, and one colon tumor; assay: Advanced-stage human tumor xenografts, ip infusion; type: in vivo, human xenograft in athymic CD-1 mice; settings: seven day ip infusion
Protocol: as §1

Structure (SMILES): Nc1ncnc2c1nc(Cl)n2[C@@H]1O[C@@H]2COP(=O)(O)O[C@H]2[C@H]1O [8-Cl-cAMP-Na^+]
- toxicity [1]: appeared to be toxic
- Postinoculation lifespan (T/C) ([2]; 0.6 mg/kg/day ip, 24-hr infusion, day 1-5): 100
- Postinoculation lifespan (T/C) ([2]; 1.7 mg/kg/day ip, 24-hr infusion, day 1-5): 100
- Postinoculation lifespan (T/C) ([2]; 4.8 mg/kg/day ip, 24-hr infusion, day 1-5): 100
- Postinoculation lifespan (T/C) ([2]; 13 mg/kg/day ip, 24-hr infusion, day 1-5): 113
- Postinoculation lifespan (T/C) ([2]; 22 mg/kg/day ip, 24-hr infusion, day 1-5): 126
- Postinoculation lifespan (T/C) ([2]; 22 mg/kg/day ip, qd, day 1-7): 103
- Postinoculation lifespan (T/C) ([2]; 37 mg/kg/day ip, 24-hr infusion, day 1-5): 126
- Postinoculation lifespan (T/C) ([2]; 37 mg/kg/day ip, qd, day 1-7): 93
- Postinoculation lifespan (T/C) ([2]; 62 mg/kg/day ip, 24-hr infusion, day 1-5): 137
- Postinoculation lifespan (T/C) ([2]; 62 mg/kg/day ip, qd, day 1-7): 103
- Postinoculation lifespan (T/C) ([2]; 104 mg/kg/day ip, 24-hr infusion, day 1-5): 137
- Postinoculation lifespan (T/C) ([2]; 104 mg/kg/day ip, qd, day 1-7): 98
- Postinoculation lifespan (T/C) ([2]; 173 mg/kg/day ip, 24-hr infusion, day 1-5): 131
- toxicity ([2]; 288 mg/kg/day ip infusion): toxic
- toxicity ([2]; 288 mg/kg/day ip infusion, listed as 8Cl-cAMP-Na^+): killed 2 to 5 mice
- Postinoculation lifespan (T/C) ([2]; 288 mg/kg/day ip, 24-hr infusion, day 1-5, toxic): 128
- toxicity ([2]; 480 mg/kg/day ip infusion): toxic
- toxicity ([2]; 480 mg/kg/day ip infusion, listed as 8Cl-cAMP-Na^+): lethally toxic for all treated mice
- Postinoculation lifespan (T/C) ([2]; 480 mg/kg/day ip, 24-hr infusion, day 1-5, toxic): 93
- toxicity ([2]; 800 mg/kg/day ip infusion): toxic
- toxicity ([2]; 800 mg/kg/day ip infusion, listed as 8Cl-cAMP-Na^+): lethally toxic for all treated mice
- Postinoculation lifespan (T/C) ([2]; 800 mg/kg/day ip, 24-hr infusion, day 1-5, toxic): 62
- Final Mean Tumor Wt ([3]; 37 mg/kg/day, initial 288 mg): 284 mg
- % Δ T/T or % Δ T/ΔC ([3]; 37 mg/kg/day, negative = ΔT/T): -01%
- Final Mean Tumor Wt ([3]; 62 mg/kg/day, initial 293 mg): 290 mg
- % Δ T/T or % Δ T/ΔC ([3]; 62 mg/kg/day, negative = ΔT/T): -01%
- % Δ T/T or % Δ T/ΔC ([3]; 104 mg/kg/day): -35%
- Final Mean Tumor Wt ([3]; 104 mg/kg/day, initial 288 mg): 317 mg
- Toxic deaths, No. killed/No. treated ([4]; 173 mg/kg ip bolus): 2/5
- Toxic deaths, No. killed/No. treated ([4]; 173 mg/kg ip bolus, listed as 8Cl-cAMP-Na^+): killed 2 of 5 mice
- Toxic deaths, No. killed/No. treated ([4]; 288 mg/kg ip bolus): 5/5
- Toxic deaths, No. killed/No. treated ([4]; 288 mg/kg ip bolus, listed as 8Cl-cAMP-Na^+): lethally toxic for all treated mice
- Toxic deaths, No. killed/No. treated ([4]; 480 mg/kg ip bolus): 5/5
- Toxic deaths, No. killed/No. treated ([4]; 480 mg/kg ip bolus, listed as 8Cl-cAMP-Na^+): lethally toxic for all treated mice
- LD10 ([4]; Single ip dose): 122 mg/kg
- mortality ([5]; 22 mg/kg ip bolus): 0%
- mortality ([5]; 37 mg/kg ip bolus): 0%
- mortality ([5]; 62 mg/kg ip bolus): 0%
- mortality ([5]; 104 mg/kg ip bolus): 0%
- LD50 ([5]; Single ip dose): 195 mg/kg
- Final Mean Tumor Wt ([6]; 37 mg/kg/day, initial 330 mg): 341 mg
- % Δ T/T or % Δ T/ΔC ([6]; 37 mg/kg/day, positive = ΔT/ΔC): +06%
- Final Mean Tumor Wt ([6]; 62 mg/kg/day, initial 327 mg): 277 mg
- % Δ T/T or % Δ T/ΔC ([6]; 62 mg/kg/day, negative = ΔT/T): -15%
- Final Mean Tumor Wt ([6]; 104 mg/kg/day, initial 324 mg): 270 mg
- % Δ T/T or % Δ T/ΔC ([6]; 104 mg/kg/day, negative = ΔT/T): -17%
- Final Mean Tumor Wt ([7]; 62 mg/kg/day, initial 337 mg): 288 mg
- % Δ T/T or % Δ T/ΔC ([7]; 62 mg/kg/day): -15%
- Final Mean Tumor Wt ([7]; 104 mg/kg/day, initial 346 mg): 323 mg
- % Δ T/T or % Δ T/ΔC ([7]; 104 mg/kg/day): -07%
- Final Mean Tumor Wt ([7]; 173 mg/kg/day, initial 375 mg): 336 mg
- % Δ T/T or % Δ T/ΔC ([7]; 173 mg/kg/day): -10%
- Final Mean Tumor Wt ([8]; 37 mg/kg/day, initial 367 mg): 516 mg
- % Δ T/T or % Δ T/ΔC ([8]; 37 mg/kg/day): +41%
- Final Mean Tumor Wt ([8]; 62 mg/kg/day, initial 375 mg): 471 mg
- % Δ T/T or % Δ T/ΔC ([8]; 62 mg/kg/day): +26%
- Final Mean Tumor Wt ([8]; 104 mg/kg/day, initial 367 mg): 433 mg
- % Δ T/T or % Δ T/ΔC ([8]; 104 mg/kg/day): +18%
- tumor growth during treatment [9]: caused tumor stasis during treatment
